The results in this text go back to patent EP0266890A1, “Imidazopyridine derivatives, their production, and pharmaceutical compositions containing them” (YAMANOUCHI PHARMACEUTICAL CO. LTD., priority 1986, dated 1988).

Bounds are passed on as bounds.

Data set [1] relates to Gastric Acid Secretion. As to the kind of experiment: Histamine-stimulated gastric acid secretion in Heidenhain pouch dogs. The note with it: histamine s.c. 1 hour after drug administration. It is filed as in vivo, beagle dogs. As to the method:
Six male beagle dogs (13 to 17kg) with well-established Heidenhain pouches were used for the construction of gastric acid secretion response curves. Food was withheld but water allowed for 18 hours before each experiment. Histamine (60 Mg/kg/hr) was administered subcutaneously 1 hour after drug administration. The pouch secretion was allowed to drain into a collection vessel which was changed every 15 minutes. Gastric juice volume was recorded, and acid concentration was determined by titration with 0.05N NaOH up to pH 7.0 using an automatic titrator (Hiranuma Sangyo Co., COMTITE-7).

Data set [2] in a line: in vivo. Also on record: species or system Fischer-rats. The settings on record: rat, po. The method, then:
That is, LD50(p.o.) of the compound was higher than 1,000 mg/kg.

`Cc1nc2c(OCC3CCCCC3)cccn2c1CC#N` [Example 11, 3-cyanomethyl-8-cyclohexylmethoxy-2-methylimidazo-[1,2-a]-pyridine]: the “Gastric Acid Secretion Inhibitory Rate (%) Pouch Dog 3 mg/kg p.o.” value in data set [1] is recorded as 67%.
Take `CCCCCOc1cccn2c(CC#N)c(C)nc12` [Example 12, 3-Cyanomethyl-2-methyl-8-pentyloxyimidazo-[1,2-a]pyridine]: the “Gastric Acid Secretion Inhibitory Rate (%) Pouch Dog 3 mg/kg p.o.” value in data set [1] is reported as 61%.
Turning to `CC(C)=CCOc1cccn2c(CC#N)c(C)nc12` [Example 16, 3-Cyanomethyl-2-methyl-8-[(3-methyl-2-butenyl)-oxy]imidazo[1,2-a]pyridine], the “Gastric Acid Secretion Inhibitory Rate (%) Pouch Dog 3 mg/kg p.o.” value in data set [1] is reported as 82%. The same compound came in with an LD50 at 24 h in data set [2] greater than 1000 mg/kg.
Consider `Cc1nc2c(OCc3ccccc3)cccn2c1CC#N` [Known compound A, reference compound], for which, in data set [1], the “Gastric Acid Secretion Inhibitory Rate (%) Pouch Dog 3 mg/kg p.o.” value is given as 36%.
On to `C=CCOc1cccn2c(CC#N)c(C)nc12` [Known compound B, reference compound], for which, in data set [1], the “Gastric Acid Secretion Inhibitory Rate (%) Pouch Dog 3 mg/kg p.o.” value is listed as 21%.
